# Measurements as given in patent publication US12702657B2, “Treatment and prevention of dengue disease” (Janssen Pharmaceuticals, Inc., priority 2019, dated 2026).
# Tests used:
# DENV 1/45AZ5 = experiment: Antiviral activity against DENV 1/45AZ5 in non-human primates, prophylactic setting; type: in vivo, rhesus monkeys (Macaca mulatta); settings: 6 mg/kg q.d. oral, day -3 to day 10, follow-up to day 28 post infection
# Method: The antiviral activity of compound (a) DENV in a prophylactic setting was assessed in rhesus monkeys (Macaca mulatta) infected with strain DENV 1/45AZ5. Oral dosing of compound (a) (6 mg/kg) was started 3 days before infection with DENV (day −3) and continued with daily dosing until 10 days post infection. On day 0, the animals were intradermally inoculated with 0.5 mL of DENV 1/45AZ5 (1.2×105 plaque-forming units [PFU/mL]). Animals were followed up until day 28 post infection (FIG. 13 X).
# The rhesus monkeys were divided in 2 groups representing the following treatment regimens: • (i) Vehicle 100% PEG400 (n=6) • (ii) Group 1: 6 mg/kg/dose, q.d. (n=6),
# DENV-2/16681 = experiment: Pre-exposure prophylaxis in non-human primate model against DENV-2/16681; type: in vivo, rhesus monkeys (Macaca mulatta); settings: for reduction in median peak DENV RNA compared with vehicle, significance / median reduction in DENV peak RNA levels compared with vehicle control: Bayesian nonlinear dose-response model; for onset of DENV RNA and peak RNA / DENV RNA throughout the study period (up to day 28): day -1 to day 10; for onset of DENV RNA and peak RNA: in some animals; for median reduction in DENV peak RNA levels compared with vehicle control: estimated
# Method: Compound (a) was tested in a non-human primate (NHP) model against DENV-2/16681. The setup of the experiment was designed as a pre-exposure prophylaxis (PreP) study. Oral administration of compound (a) started one day before experimental infection (day −1) and continued with daily administrations until 10 days post-infection. On day 0, the animals were infected by intradermal inoculation with 100 TCID50 of DENV-2/16681 virus in a total volume of 0.1 mL (FIG. 11).
# The rhesus monkeys were divided in 7 groups representing the following treatment regimens: • (i) Vehicle 100% PEG400 (n=5) • (ii) Group 1: 0.01 mg/kg/dose, q.d. (n=3), • (iii) Group 2: 0.18 mg/kg/dose, q.d. (n=3), • (iv) Group 3: 3 mg/kg/dose, q.d. (n=3), • (v) Group 4: 0.024 mg/kg/dose, q.d. (n=4), • (vi) Group 5: 0.09 mg/kg/dose, q.d. (n=4), • (vii) Group 6: 0.93 mg mg/kg/dose, q.d. (n=4).
# The antiviral activity of compound (a) in a prophylactic setting is being assessed in DENV-2/16681 infected rhesus monkeys (Macaca mulatta). Blood samples were taken on a daily basis from day 0 until day 11, and on day 14 and day 28. DENV RNA was measured using real-time qPCR as described by Santiago et al. (2013). Results from compound (a) doses of 0.01, 0.024, 0.09, 0.18, 0.93 and 3 mg/kg, administered once daily from day 1 before infection until day 10 post infection, are shown in FIGS. 12A and B.
# Based on a Bayesian nonlinear dose-response statistical model, the peak viral load reduction compared with vehicle was estimated for each dose group. […] A dose dependent median reduction in DENV peak RNA levels of 0.78, 1.91, 4.73 and 6.76 log10 genome copy equivalents (GCE) per milliliter (GCE/mL) plasma compared with vehicle control was estimated with the 0.09, 0.18, 0.93 and 3 mg/kg doses, respectively (Table 1).
# DENV-2/Rega lab strain = experiment: AG129 mouse model, low viral input (10^2 PFU), PrEP, post-exposure prophylaxis and treatment (delayed treatment start); type: in vivo, AG129 mice; settings: 30 mg/kg/dose b.i.d.; for viral load at viral rebound: start 2 days after infection (group 4)
# Method: AG129 mice, age- and sex-matched (6 to 9 weeks of age), were used to assess the activity of compound (b) on viral RNA levels in the serum of the mice. The animals were infected intraperitoneally (i.p.) with 1×10^2 PFU DENV-2/Rega lab strain and treated for five consecutive days with compound (b) which was administered by oral gavage. Compound (b) was administered every 12 hours (twice daily or b.i.d.).
# The mice were divided in six treatment groups (n=8/group) representing the following treatment regimens: • (i) Vehicle 80%/20% PEG400/H2O (group 1), • (ii) 30 mg/kg/dose compound (b) b.i.d.: first administration 1 hour before infection (group 2), • (iii) 30 mg/kg/dose compound (b) b.i.d., first administration 1 day after infection (group 3), • (iv) 30 mg/kg/dose compound (b) b.i.d., first administration 2 days after infection (group 4), • (v) 30 mg/kg/dose compound (b) b.i.d., first administration 3 days after infection (group 5), • (vi) 30 mg/kg/dose compound (b) b.i.d., first administration 4 days after infection (group 6), • (vii) 30 mg/kg/dose compound (b) b.i.d., first administration 5 days after infection (group 7), • (viii) 30 mg/kg/dose compound (b) b.i.d., first administration 6 days after infection (group 8).
# Blood for viral RNA load detection was collected from mice in two alternating sub-groups. Each sub-group comprised half of the mice (n/2=4) from each of the treatment groups (i) to (viii). Blood was collected from a first sub-group at days 2, 4, 6, 8 and 12 p.i. and from a second sub-group at days 3, 5, 7, 9 and 14 p.i. At day 12 p.i., half of the mice in each treatment group (n=4/group) were sacrificed. The remaining mice in each treatment group (n=4/group) were sacrificed at day 14 p.i. (FIG. 17Y).
# [1] = first administration 4 days after infection (group 6)
# [2] = first administration 5 days after infection (group 7)
smiles,measurement,setting,value
COc1cc(NC(C(=O)c2c[nH]c3ccc(OC(F)(F)F)cc23)c2ccc(Cl)cc2OC)cc(S(C)(=O)=O)c1 (centres unmarked) [compound (a)],DENV RNA during the complete study period,DENV 1/45AZ5,undetectable
same,"reduction in median peak DENV RNA compared with vehicle, significance",DENV-2/16681; 0.01 mg/kg q.d. oral,No statistically significant reduction
same,"reduction in median peak DENV RNA compared with vehicle, significance",DENV-2/16681; 0.024 mg/kg q.d. oral,No statistically significant reduction
same,onset of DENV RNA and peak RNA,DENV-2/16681; 0.09 mg/kg q.d. oral,delayed onset of DENV RNA and peak RNA
same,median reduction in DENV peak RNA levels compared with vehicle control,DENV-2/16681; 0.09 mg/kg q.d. oral,0.78 log10 GCE/mL
same,onset of DENV RNA and peak RNA,DENV-2/16681; 0.18 mg/kg q.d. oral,delayed onset of DENV RNA and peak RNA
same,median reduction in DENV peak RNA levels compared with vehicle control,DENV-2/16681; 0.18 mg/kg q.d. oral,1.91 log10 GCE/mL
same,DENV RNA throughout the study period (up to day 28),DENV-2/16681; 0.93 mg/kg q.d. oral,No DENV RNA was detectable
same,median reduction in DENV peak RNA levels compared with vehicle control,DENV-2/16681; 0.93 mg/kg q.d. oral,4.73 log10 GCE/mL
same,DENV RNA throughout the study period (up to day 28),DENV-2/16681; 3 mg/kg q.d. oral,No DENV RNA was detectable
same,median reduction in DENV peak RNA levels compared with vehicle control,DENV-2/16681; 3 mg/kg q.d. oral,6.76 log10 GCE/mL
COc1cc(NC(C(=O)N2CCc3ccc(OC(F)(F)F)cc32)c2ccc(Cl)cc2)cc(OCCCC(=O)O)c1 (centres unmarked) [compound (b)],viral RNA in the serum,DENV-2/Rega lab strain; first administration 1 hour before infection (group 2),undetectable levels
same,viral RNA in the serum,DENV-2/Rega lab strain; first administration 1 day after infection (group 3),undetectable levels
same,viral RNA in the serum,"DENV-2/Rega lab strain; first administration 2 days after infection (group 4), except two measurements",undetectable levels
same,viral load until day 9 post infection,DENV-2/Rega lab strain; first administration 3 days after infection (group 5),undetectable viral load
same,peak viral load reduction,DENV-2/Rega lab strain; [1],1.1 log10 copies/mL
same,time to undetectable viral load compared with vehicle treated mice,DENV-2/Rega lab strain; [1],undetectable viral load was reached earlier
same,peak viral load reduction,DENV-2/Rega lab strain; [2],0.7 log10 copies/mL
same,time to undetectable viral load compared with vehicle treated mice,DENV-2/Rega lab strain; [2],undetectable viral load was reached earlier
same,time to undetectable viral load compared with vehicle treated mice,DENV-2/Rega lab strain; first administration 6 days after infection (group 8),undetectable viral load was reached earlier
same,viral load at viral rebound,DENV-2/Rega lab strain; day 9 post infection,3.0 log10 copies/mL
same,viral load at viral rebound,DENV-2/Rega lab strain; day 14 post infection,4.7 log10 copies/mL
same,viral RNA detected,"DENV-2/Rega lab strain; start 3 days after infection (group 5), day 12 post infection",5.0 log10 copies/mL
